Measurements published in patent publication US12239661B2, “Methods and compositions for treating undesired implanted tissue filler” (priority 2019, dated 2025).
Marks after values point to notes of the source that are not given here.

How the values were obtained:
[1] = In vivo CT of filler nodule volume, density and 3D shape after test solutions 0-8 (Example 3); settings: for Change in Volume as percent of Injected Volume, Day 14/15: Example 3 (Day 14); for Change in Volume as percent of Injected Volume, Day 14/15 / Change in Volume as percent of Injected Volume, Day 0 + 1 h 15 / Change in Volume as percent of Injected Volume, Day 0 + 2 h / Change in Volume as percent of Injected Volume, Day 0 + 4 h / Change in Volume as percent of Injected Volume, Day 1 / Change in Volume as percent of Injected Volume, Day 3 / Change in Volume as percent of Injected Volume, Day 7: mean; for Change in Volume as percent of Injected Volume, Day 0 + 1 h 15 / Change in Volume as percent of Injected Volume, Day 0 + 2 h / Change in Volume as percent of Injected Volume, Day 0 + 4 h / Change in Volume as percent of Injected Volume, Day 1 / Change in Volume as percent of Injected Volume, Day 3 / Change in Volume as percent of Injected Volume, Day 7: Example 3; for Change in Volume as percent of Injected Volume, Day 0 + 1 h 15: 1.5 mL solution into 500 μl nodule; for effect on volume at the filler injection site: after 7 and 14 days, vs untreated
Protocol: One hour after filler injections (T=1 h), 1.5 mL of selected solutions (Table 5, solutions 0-8, test items, solution 0 is normal saline and not hyperosmotic) were injected each into 9 dermal filler nodules in the right flank (ventral area).
A total of 7 CT-scans were performed at 1 h 15, 2 h, 4 h, 1 day (24 h), 3, 7 and 14 days after injection of the dermal filler. The clinical state of each animal is assessed once a week by body weight measurement and clinical observations.
The 10 SC injections of dermal filler on Day 0 were performed in the ventral area, (five nodules on each flank of the ventral area) for each pig. For each SC nodule, a theoretical volume of 500 μl was administered. One hour (±5 min) after injection of dermal filler, SC injection of the different solutions (prepared the day before) were performed into nine (9) nodules of dermal. For each SC nodule, a theoretical volume of 1.5 mL of test solution was administered.
The X-ray computed tomography acquisitions were performed with the Computed Tomography Scanner BrightSpeed 16 (General Electric). In order to measure the volume and the mean density and to visualize the 3D shape of the dermal filler (Radiesse® filler with or without test solution) injected, in vivo CT-scans were performed on Day 0: 1 h 15 (±10 min), 2 h (±15 min) and 4 h (±20 min), on Day 1 (24 h+1 h), Day 3, Day 7 and Day 14.
During CT acquisition on Day 0, the pigs received an IM injection of anesthesia. The animals were maintained under anesthesia until the CT acquisition at T=2 h (2 h after dermal filler injection session). Between these CT acquisitions, the animals were under surveillance in the recovery room on a heating mat with fluidotherapy. At the end of the CT acquisition at T=2 h, the pigs received a tattoo around each injected site. During the CT acquisitions at T=4 h and on Days 1, 3, 7 and 14, pigs received an IM injection of anesthesia. For the CT-scans, animals were positioned in dorsal recumbency and acquisitions were centered on the injection sites. The parameters of the CT-scan are described in Table 5.
The CT acquisition was analyzed with the software Avizo version 9.2.0. The objective of this analysis was to assess the degradation over time of the dermal filler injected by SC route after injection of different test solutions.
An image segmentation processing was performed on each CT acquisition. First, a manual pre-segmentation was performed around each nodule in order to roughly isolate the voxels corresponding to dermal filler product, which defined a Region of Interest (ROI). Second, an automatic segmentation was applied on the previously defined ROI using a global grey level thresholding procedure.
On day 0, a farm pig received ten (10) SC injections of Radiesse® dermal filler 0.5 mL (ventral area) (10 nodules in total). One hour after filler injections (T=1 h), 1.5 mL of one of eight test hyperosmotic solutions (1-8 solutions, Table 5) was injected at an injection site. One injection site was untreated and one injection site was treated with normal saline (0.9% wt/v NaCl).

[2] = X-ray CT of volume, mean density and 3D shape of Radiesse nodules and injected hyperosmotic solutions (Example 4); assay type: in vivo, Pig (Sus scrofa domesticus)
Protocol: Pigs are injected by SC route with Radiesse® filler without Lidocaine (Test item). One hour after the Radiesse® filler injection, selected different hyperosmotic solutions are injected by SC route into the dermal filler nodules. For two Radiesse® filler nodules per pig, no additional product is injected; these nodules are used as controls.
The evolution over time of the volume and mean density of the Radiesse® filler nodules with injection of the different solutions are assessed by CT-scanner at selected time points: on Day 0, at about 1 hour (h) and 15 minutes (min), 2 h and 4 h after the Radiesse® filler injection and solution injection, and then, on Day 1 (about 24 h after Radiesse® filler injection), Day 3, Day 7 and Day 15.
On Day 0, 4 pigs received ten (10) SC injections of Radiesse® dermal filler (P20WK-EE-01) of about 500 μl/nodule in the flank (ventral area) at T=0. One hour after Radiesse® dermal filler injections (T=1 h), about 1.5 ml of different hyperosmotic solutions (P20WK-EE-02 to P20WK-EE-05) were each injected into 8 Radiesse® filler nodules. Two Radiesse® filler nodules per animal were not injected with hyperosmotic solution and served as controls.
A total of 7 CT-scans were performed at 1 h 15±10 min, 2 h±15 min, 4 h±20 min, 1 day (24 h±1 h), 3, 7 and 15 days after injection of the dermal filler, as described in FIG. 9A.
On Day 0 (TO), 10 SC injections of test item P20WK-EE-01 (Radiesse® dermal filler) were performed in the ventral area (five nodules on each flank of the ventral area). For each SC nodule, a theoretical volume of 500 μL was administered. One hour (±5 min) after injection of dermal filler, SC injections of the different solutions (prepared on Day −3) were performed into 8 nodules of dermal filler. For each injection of solution, a theoretical volume of 1.5 mL was administered (see, e.g., injection scheme in Table 11).
In order to measure the volume, the mean density and to visualize the 3D shape of the dermal filler SC injected (in presence or absence of different hyperosmotic solutions), in vivo CT-scans were performed on Day 0: 1 h 15 (±10 min), 2 h (±15 min) and 4 h (±20 min), on Day 1 (24 h±1 h), Day 3, Day 7 and Day 15.
The CT acquisitions are analyzed with the software Avizo version 9.2.0. The objective of this analysis was to assess the dispersion over time of the Radiesse® dermal filler injected by SC route after injection of different hyperosmotic solutions.
To achieve this goal, the evolution of these parameters is observed over time: • the volume of each nodule (Radiesse® dermal filler and solution separately), • the mean density of each nodule (Radiesse® dermal filler and solution separately), • the 3D shape of each nodule by visualization of the 3D model of each nodule at each time point (Radiesse® dermal filler with or without solution separately). Segmentation:
An image segmentation is performed on each CT acquisition on the […] reconstruction. At first, a manual pre-segmentation is performed around each nodule in order to roughly isolate the voxels corresponding to Radiesse® dermal filler and hyperosmotic solutions and defined a Region of Interest (ROI). Secondly, an automatic segmentation is applied on the ROI previously defined using a global grey level thresholding procedure. […] Similarly, all the voxels having a grey level between these HU values are selected in a ROI and corresponds to the pure solution or solution containing some dispersed Radiesse® dermal filler (see, FIG. 10).
Then, a 3D model of these selected voxels (see, FIG. 11) is obtained allowing the calculation of the total volume (in mm^3) and the mean density (in HU) of the two defined compartments of each nodule of Pure Radiesse® dermal filler and of each solution containing or not containing dispersed Radiesse® dermal filler.
The volume (in mm^3) of the ROI of Radiesse® dermal filler and the solutions corresponding to each nodule and the mean density (in HU) of each nodule are calculated at each time point.

[3] = listed as Hyperosmotic Saline (sol 1)

Compound	Change in Volume as percent of Injected Volume, Day 14/15 [1]	Change in Volume as percent of Injected Volume, Day 0 + 2 h [1] [%]	Change in Volume as percent of Injected Volume, Day 0 + 4 h [1]	Change in Volume as percent of Injected Volume, Day 1 [1] [%]	Change in Volume as percent of Injected Volume, Day 3 [1]	Change in Volume as percent of Injected Volume, Day 7 [1]	Change in Volume as percent of Injected Volume, Day 0 + 1 h 15 [1]	also measured
[Cl-].[Na+] [sol 1, Sodium chloride]								Change in Volume as percent of Injected Volume, Day 14/15 [1, 3]: 175.89* percent; Change in Volume as percent of Injected Volume, Day 0 + 1 h 15 [1, 3]: 161.28* percent; Change in Volume as percent of Injected Volume, Day 0 + 2 h [1, 3]: 157.58%; Change in Volume as percent of Injected Volume, Day 0 + 4 h [1, 3]: 164.59* percent; Change in Volume as percent of Injected Volume, Day 1 [1, 3]: 202.75%; Change in Volume as percent of Injected Volume, Day 3 [1, 3]: 199.27%; Change in Volume as percent of Injected Volume, Day 7 [1, 3]: 192.06* percent; effect on volume at the filler injection site ([1]; listed as hyperosmotic NaCl): significant decreased volume
O.O.O=C([O-])CC(O)(CC(=O)[O-])C(=O)[O-].[Na+].[Na+].[Na+] [sol 9, Sodium citrate, dihydrate]								Change in Volume as percent of Injected Volume, Day 14/15 ([2]; Example 4 (Day 15), mean): 1969%; Change in Volume as percent of Injected Volume, Day 0 + 1 h 15 ([2]; Example 4, mean): 1488%; Change in Volume as percent of Injected Volume, Day 0 + 2 h ([2]; Example 4, mean): 1571%; Change in Volume as percent of Injected Volume, Day 0 + 4 h ([2]; Example 4, mean): 1901%; Change in Volume as percent of Injected Volume, Day 1 ([2]; Example 4, mean): 2210%; Change in Volume as percent of Injected Volume, Day 3 ([2]; Example 4, mean): 2010%; Change in Volume as percent of Injected Volume, Day 7 ([2]; Example 4, mean): 2243%; average of the mean density of solution nodules, T=1 h 15 ([2]; between −100 HU and 250 HU): 18.4±7.0 HU; average of the mean density of solution nodules, T=2 h ([2]; between −100 HU and 250 HU): 2.1±7.9 HU; mean volume of solution with potential dispersed Radiesse, T=2 h ([2]; between −100 HU and 250 HU): 4319.7±989.2 mm^3; variation of the average of the mean density of solutions, Day 15 compared to T=1 h 15 ([2]; between −100 HU and 250 HU): 347.7%; average of the mean density of nodules, Day 1 ([2]; pure Radiesse >250 HU): 447.0±34.1 HU; average of the mean density of nodules, Day 3 ([2]; pure Radiesse >250 HU): 478.2±64.8 HU
O.O.O=P([O-])(O)O.[Na+] [sol 2, Sodium dihydrogen phosphate dihydrate]	179.72* percent	151.58	164.27%	198.42	201.11%	201.97%	156.57%	
OC[C@H]1O[C@@](CO)(O[C@H]2O[C@H](CO)[C@@H](O)[C@H](O)[C@H]2O)[C@@H](O)[C@@H]1O [sol 8, Sucrose]	180.45%	167.63	190.95%	202.96	207.85%	199.72%	167.87* percent	effect on volume at the filler injection site [1]: trend to decrease volume of filler
CC(=O)[O-].[Na+] [sol 3, Sodium acetate]	176.61* percent	154.89	165.88%	202.12	197.50* percent	189.13* percent	152.73%	
O.O.O.O.O.O.O.O=S(=O)([O-])[O-].[Mg+2] [sol 5, Magnesium sulfate heptahydrate]	186.95%	159.33	158.84* percent	188.43	206.26* percent	202.32%	170.49* percent	
OCC(O)CO [sol 6, Glycerol]	173.93* percent	156.43	184.92%	200.32	197.65* percent	197.62* percent	151.48%	
